# Experiments:
# Pa13 gene [1] = test: Pa13 gene expression by real-time RT-PCR in primary skeletal muscle cells; assay type: cell-based, human; settings: about 18-20 hours, vehicle control = 100
# Source text: (§1) Human hepatocyte HuH7 cells, which are epithelial cells of liver, were obtained from Japan Health Science Research Resources Bank (Osaka, Japan). Human primary adipocytes, which are connective tissue cells specialized for the synthesis and storage of fat, were obtained from Zen-Bio, Inc (Research Triangle Park, NC). Human primary skeletal muscle cells (SKMC) were obtained from Cambrex Bio Science (Walkersville, Md.). PPARα agonists, Wy14643 (Agatha, et al, 2000, Archives of Biochemistry and Biophysics 380:353-359) and fenofibrates were obtained from Cayman Chemical (Ann Arbor, Mich.) and Sigma (St Louis, Mo.), respectively.
# (§2) Human HuH7 cells were cultured in Dulbecco's Modified Eagle Medium with 10% Fetal Bovine Serum (Gibco, N.Y.). Cells were treated with charcoal-stripped, delipidated calf serum (5%) (Sigma, St Louis, Mo.) for about 4-18 hours. Then, cells were treated with different concentrations of PPARα agonist (Wy14643 or fenofibrates) for about 20-24 h. Human SKM cells were cultured in Skeletal Muscle Growth Medium (Cambrex Bio Science, Walkersville, Md.), and were treated with different concentrations of PPARα agonist (Wy14643 or fenofibrates) for about 18-20 hours. Human primary adipocytes were cultured in Preadipocyte Medium, (Cat #PM—1, Zen-Bio, Inc., Research Triangle Park, NC), and were treated with different concentrations of PPARα agonist (Wy14643 or fenofibrates) for about 18-20 hours.
# Total RNA was purified from cultured cells following the protocol provided by the manufacturer (Trizon method, Invitrogen Inc. Ca). The polymerase chain reaction (PCR) primers and fluorescent probes (TagMan probes) for Pa9, Pa13, and Pa21 were designed from GenBank sequences of accession numbers W30988, AB000584, and NM_080725, respectively. The primers and probes were designed using the software PrimerDesign (Applied Biosystems, Foster City, Calif.). The PCR primers for Pa9 were SEQ ID NO: 7, (5-[…]) and SEQ ID NO: 8 (5-[…]). […] The PCR primers for Pa13 were SEQ ID NO: 10 (5-[…], T) and SEQ ID NO: 11 (5-[…] T). […] The PCR primers for Pa21 were SEQ ID NO: 13 (5-[…] C) and SEQ ID NO: 14 (5-[…]). […] All primers and probes were synthesized by Keystone Labs (Camarillo, Calif.).
# (§3) Reverse transcription (RT) and PCR were conducted in one step using “One-Step RT-PCR Master Mix Reagent” kit (Applied Biosystems, Foster City, Calif.) in ABI PRISM 7700 Sequence Detection System (Applied Biosystems). Each reaction was performed in a total volume of 25 μl containing 40 ng of total RNA. The reaction condition was: 48° C. for 30 minutes, 60° C. for 30 minutes, 94° C. for 5 minutes, followed by 40 cycles of 94° C. for 20 seconds and 60° C. for 1 minute. The primers for 18S ribosomal RNA were developed and provided by Applied Biosystems. The measurement of human 18S ribosomal RNA was used as an internal control for normalization of measuring and loading errors. PCR data were collected by Ct value (the cycle number at which logarithmic PCR plots cross a calculated threshold line) according to the manufacturer's guidelines and the value was used to determine the Δ^Ct (Ct of the target gene minus the Ct of 18S ribosomal RNA controls). Relative mRNA level was calculated using the equation 2^−ΔΔCt as described previously (Heid et al., 1996, Genome Res. 6:986-994).
# Pa9 gene [2] = test: Pa9 gene expression by real-time RT-PCR in primary adipocytes; assay type: cell-based, human; settings: about 18-20 hours, vehicle control = 100
# Source text: as §1, §2
# Total RNA was purified from cultured cells following the protocol provided by the manufacturer (Trizon method, Invitrogen Inc. Ca). The polymerase chain reaction (PCR) primers and fluorescent probes (TagMan probes) for Pa9, Pa13, and Pa21 were designed from GenBank sequences of accession numbers W30988, AB000584, and NM_080725, respectively. The primers and probes were designed using the software PrimerDesign (Applied Biosystems, Foster City, Calif.). The PCR primers for Pa9 were SEQ ID NO: 7, (5-[…]) and SEQ ID NO: 8 (5-[…]). […] The PCR primers for Pa13 were SEQ ID NO: 10 (5-[…], T) and SEQ ID NO: 11 (5-[…] T). […] The PCR primers for Pa21 were SEQ ID NO: 13 (5-[…] C) and SEQ ID NO: 14 (5-[…]). […]
# Reverse transcription (RT) and PCR were conducted in one step using “One-Step RT-PCR Master Mix Reagent” kit (Applied Biosystems, Foster City, Calif.) in ABI PRISM 7700 Sequence Detection System (Applied Biosystems). […] PCR data were collected by Ct value (the cycle number at which logarithmic PCR plots cross a calculated threshold line) according to the manufacturer's guidelines and the value was used to determine the Δ^Ct (Ct of the target gene minus the Ct of 18S ribosomal RNA controls). Relative mRNA level was calculated using the equation 2^−ΔΔCt as described previously (Heid et al., 1996, Genome Res. 6:986-994).
# human FDRG gene = test: FDRG gene expression by real-time RT-PCR in primary skeletal muscle cells; assay type: cell-based; settings: Veh = 1.00, same RNA sample
# Experimental: as §3
# The nucleotide sequence of the human FDRG gene (AX278133) is provided in SEQ ID NO: 1 and the sequence alignment between W30988 and FDRG gene is shown in FIG. 1. […] Quantitative real-time RT-PCR was performed to test whether gene expression of the human FDRG gene is regulated by PPARα. […]
# Pa9 gene [3] = test: Pa9 gene expression in SKM cells with or without siRNA-reduced PPARα expression; assay type: cell-based, human
# Source text: (§4) SiRNA oligos specific to PPARα were designed and used to knock-down or reduce the expression level of PPARα in human SKMU cells following procedures known to those skilled in the art (Brummelkamp et al., 2002, Science, 296: 550-553). Four sets of siRNA oligo were originally designed using GenBank accession number S74349 (human peroxisome proliferator activated receptor alpha, cDNA; PPARα) as the template, and the software, Target Finder (Ambion, Austin, Tex.). […] The sequences for the two sets of siRNA correspond to 907 bp to 927 bp (SEQ ID NO: 21, 5′-[…] A) and 1106 bp to 1126 bp of the cDNA (SEQ ID NO: 22, 5′-[…] T) relative to the first nucleotide of the start codon. The oligos were chemically synthesized by Ambion Inc. (Austin, Tex.). The universal negative control siRNA oligo was purchased from Ambion.
# Human primary skeletal muscle cells (hSKM, provided by Cambrex, Md.) were prepared the day before transfection at the density of 4.67×10^4 cells/per 60 mm dish (about 20% confluence). The cells were cultured at 37° C., 5% CO2 for 24 hrs with antibiotics-free SKGM medium (Cambrex, Md.).
# Transfection of siRNAs into the cultured cells was carried out following the manufacturer's instruction. Briefly, before the transfection, siPORT Amine (Ambion, Tex.) was first diluted with SKGM medium free of antibiotics and serum (10 μl siPORT/ml), followed by adding siRNA (50 nM) into the mixture. SKM cells (prepared in advance in multiple dishes) were transfected with 2 ml of the mixture for 4 hrs. Additional 8 ml of fresh SKGM medium (without antibiotics) were added into each dish to maximize cell growth and reduce potential cytotoxicity caused by the transfection reagent. As controls, the cells were also transfected with siPORT Amine alone or siPORT Amine plus universal negative control siRNA.
# (§5) Again, total RNA was isolated from the cells and real-time PCR was performed and the expression levels of target genes of interest, such as Pa9, 13 and 21, were quantitatively measured using the RT-PCR technique described in Example 1.
# Pa13 gene [4] = test: Pa13 gene expression in SKM cells with siRNA-reduced PPARα expression; assay type: cell-based, human; settings: SKMU cells with reduced PPARα expression
# Source text: as §4
# Human primary skeletal muscle cells (hSKM, provided by Cambrex, Md.) were prepared the day before transfection at the density of 4.67×10^4 cells/per 60 mm dish (about 20% confluence). The cells were cultured at 37° C., 5% CO2 for 24 hrs with antibiotics-free SKGM medium (Cambrex, Md.). […]
# as §5
smiles,measurement,setting,value
Cc1cccc(Nc2cc(Cl)nc(SCC(=O)O)n2)c1C [Wy14643],"Pa13 (N26311) gene expression, Percentage ± SE (%)",Pa13 gene [1]; 3 uM,36.4 ± 6.4%
same,"Pa13 (N26311) gene expression, Percentage ± SE (%)",Pa13 gene [1]; 10 uM,45.5 ± 10%
same,"Pa13 (N26311) gene expression, Percentage ± SE (%)",Pa13 gene [1]; 30 uM,136.4 ± 38.7%
same,"Pa13 (N26311) gene expression, Percentage ± SE (%)",Pa13 gene [1]; 100 uM,290.9 ± 54.1%
same,"Pa13 (N26311) gene expression, Percentage ± SE (%)",Pa13 gene [1]; 300 uM,1672.7 ± 32%
same,"Pa9 (W38098) gene expression, Percentage ± SE (%)",Pa9 gene [2]; 10 uM,124 ± 7.2%
same,"Pa9 (W38098) gene expression, Percentage ± SE (%)",Pa9 gene [2]; 50 uM,358 ± 6.9%
same,"Pa9 (W38098) gene expression, Percentage ± SE (%)",Pa9 gene [2]; 250 uM,437 ± 17.3%
same,"FDRG gene expression, Fold of Induction",human FDRG gene; 30 uM,4.37 fold
same,"FDRG gene expression, Fold of Induction",human FDRG gene; 100 uM,7.8 fold
same,"FDRG gene expression, Fold of Induction","human FDRG gene; 100 uM, listed as WY14643",7.80 fold
same,increase of Pa9 gene expression,"Pa9 gene [3]; SKM cells with reduced gene expression of PPARα (siRNA), 16 hrs treatment",2.35 fold
same,induction of Pa9 gene expression,"Pa9 gene [3]; SKM cells without reduced expression level of PPARα, 16 hrs treatment",33.48 fold
same,induction of Pa9 gene expression (FIG. 5),Pa9 gene [3]; SKMU cells with reduced PPARα expression,decreased induction
same,induction of Pa13 gene expression (FIG. 6),Pa13 gene [4],no detectable induction

# From patent US20050191668A1, “Methods of using peroxisome proliferator-activated receptor alpha target genes” (priority 2004, published 2005)
